Source: patent US11154572B2, “Methods of treatment with natural killer cells matched for killer immunoglobulin receptor type” (Board of Regents, The University of Texas System, priority 2015, dated 2021)

Columns and labels:
[1] = system: iC9/CAR19/IL15+ NK cells; experiment: Inducible caspase-9 suicide gene test, annexin-V-7AAD staining; assay type: cell-based, human; conditions: after 4 hours
Description: (C) CAR-NK cells home to sites of disease, such as the spleen, bone marrow, and liver, in a Raji engrafted mouse at Day 16 post-infusion. (D) CAR-NK cells persist in Raji engrafted mice at Day 70 post infusion. (E) CAR-transduced CB-NK cells show an anti-tumor effect in vivo in Raji-FFLuc mice from Day 0 to Day 14. (F) CAR-transduced CB-NK cells show an anti-tumor effect in vivo in Raji-FFLuc mice from Day 21 to Day 35. […] (H) Survival curve with different NK cell treatments. (I) CAR.19.IL15-iCasp9 transduced CB-NK cells are eliminated after activation of the suicide gene by exposure to the small molecule AP1903 after 4 hours.
Because of concerns over autonomous, uncontrolled NK-cell growth due to autocrine production of IL-15, a suicide gene based on the inducible caspase-9 (IC9) gene was incorporated into the construct. To test the inducible caspase-9 suicide gene that was incorporated into the retroviral vector, 10 nM of CID AP20187 was added to cultures of iC9/CAR19/IL15+ NK cells. The AP20187 induced apoptosis/necrosis of transgenic cells within 4 hours as assessed by annexin-V-7AAD staining (FIG. 2I).

[2] = system: primary CD19+ tumor cells; experiment: Cytotoxicity (percent lysis) against tumor cells; assay type: cell-based, human; conditions: combination with CAR-transduced NK cells
Description: FIGS. 1A-1I: (A) CB NK cells were stably transduced with SFG.iCASP9.2A.CAR.CD19-28z.2A.[…]. Cell analysis for CD56 and CAR are shown from Day 10 to Day 44. (B) Histograms show NK receptor expression on ex vivo-expanded cord blood versus peripheral blood NK cells. NK receptors include KIR2DL2/DL3, KIR2DL1, NGK2A, NKP30, NKP44, and NKP46. (C) aAPC-expanded NK cells maintain an Eomes^hi and T-bet^hi phenotype. […] (G) NK cells co-expressing CAR.19-IL-15-iCasp9 form functional synapses with CD19^+ CLL cells. Cells are stained for Perforin, Phalloidin, and CAR and imaged by confocal microscopy. (H) CAR.19-IL-15-iCasp9 transduced CB-NK cells are more efficient at killing primary CD19^+ tumor cells. Percent lysis of tumor cells is shown at varying effector:target ratios of K562, Raji, and CLL cells. (I) The activity of cord blood-derived NK cells against primary CLL cells is enhanced with lenalidomide (Revlimid).
The immunological synapse in immune cells is a discrete structural entity that forms after the ligation of a specific activation receptor and enables the cell to progress through a series of biological steps that allow it to destroy cancer cells through the elaboration of the contents of NK cells lytic granules. To determine if the CAR-transduced NK cells formed immunological synapses with CD19^+ targets, the cells were stained with antiperforin, Phalloidin-F-actin and anti-CD19-CAR.

Row | Structure (SMILES) | elimination of CAR.19.IL15-iCasp9 transduced CB-NK cells after activation of the suicide gene [1] | activity of CAR-transduced NK cells against patient-derived CLL cells on addition of lenalidomide [2]
1 | CC[C@H](C(=O)N1CCCC[C@H]1C(=O)O[C@H](CCc1ccc(OC)c(OC)c1)c1cccc(OCC(=O)NCCNC(=O)COc2cccc([C@@H](CCc3ccc(OC)c(OC)c3)OC(=O)[C@@H]3CCCCN3C(=O)[C@@H](CC)c3cc(OC)c(OC)c(OC)c3)c2)c1)c1cc(OC)c(OC)c(OC)c1 [AP1903] | eliminated | –
2 | Nc1cccc2c1CN(C1CCC(=O)NC1=O)C2=O (centres unmarked) [lenalidomide] | – | enhanced synergistically
